Measurements from patent US7365088B2, “Indazole-derivatives as factor Xa inhibitors” (Sanofi-Aventis Deutschland GmbH, priority 2003, dated 2008).

Target: human factor Xa (Homo sapiens, UniProt P00742)
Assay: Factor Xa assay (chromogenic, substrate S-2765)

Chain of human factor Xa (P00742 235-488 limits assumed): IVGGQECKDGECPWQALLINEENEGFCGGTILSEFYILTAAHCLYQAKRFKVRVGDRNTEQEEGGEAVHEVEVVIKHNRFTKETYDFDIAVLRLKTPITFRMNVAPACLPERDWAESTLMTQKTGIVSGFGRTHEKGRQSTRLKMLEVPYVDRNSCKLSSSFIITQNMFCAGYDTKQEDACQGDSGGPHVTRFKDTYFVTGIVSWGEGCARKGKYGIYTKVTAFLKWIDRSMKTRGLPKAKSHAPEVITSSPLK
Chain of human factor Xa (P00742 41-179 partner limits assumed): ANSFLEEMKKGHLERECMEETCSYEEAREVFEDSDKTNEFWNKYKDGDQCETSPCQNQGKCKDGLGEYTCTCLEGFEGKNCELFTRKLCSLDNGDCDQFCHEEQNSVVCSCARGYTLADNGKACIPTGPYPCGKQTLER

Row | Ki [µM] | Structure (SMILES)
1 | 0.051 | CC(C)N1CCC(NC(=O)c2nn(Cc3cc(-c4ccc(Cl)s4)on3)c3ccc(C(=O)NC(C)(CO)CO)cc23)CC1 [Example 24, 1-[5-(5-Chloro-thiophen-2-yl)-isoxazol-3-ylmethyl]-1H-indazole-3,5-dicarboxylic acid 5-[(2-hydroxy-1-hydroxymethyl-1-methyl-ethyl)-amide]3-[(1-isopropyl-piperidin-4-yl)-amide]]
2 | 0.03 | CC(C)N1CCC(NC(=O)c2nn(Cc3cc(-c4ccc(Cl)s4)on3)c3ccc(C(=O)N(CCO)CCO)cc23)CC1 [Example 17, 1-[5-(5-Chloro-thiophen-2-yl)-isoxazol-3-ylmethyl]-1H-indazole-3,5-dicarboxylic acid 5-[bis-(2-hydroxy-ethyl)-amide]3-[(1-isopropyl-piperidin-4-yl)-amide]]
3 | 0.24 | O=C(Cn1nc(C(=O)Nc2ccc(N3CCOCC3=O)cc2)c2ccccc21)Nc1ccc(Cl)cn1 [Example 53, 1-[(5-Chloro-pyridin-2-ylcarbamoyl)-methyl]-1H-indazole-3-carboxylic acid [4-(3-oxo-morpholin-4-yl)-phenyl]-amide]
4 | 0.052 | O=C(Nc1ccc(-n2ccc(=O)cc2)cc1)c1nn(Cc2cc(-c3ccc(Cl)s3)on2)c2ccccc12 [Example 54, 1-[5-(5-Chloro-thiophen-2-yl)-isoxazol-3-ylmethyl]-1H-indazole-3-carboxylic acid [4-(4-oxo-4H-pyridin-1-yl)-phenyl]-amide]
5 | 0.033 | CC(C)N1CCC(NC(=O)c2nn(Cc3cc(-c4ccc(Cl)s4)on3)c3ccc(C(=O)NCCN4CCNC4=O)cc23)CC1 [Example 23, 1-[5-(5-Chloro-thiophen-2-yl)-isoxazol-3-ylmethyl]-1H-indazole-3,5-dicarboxylic acid 3-[(1-isopropyl-piperidin-4-yl)-amide]5-{[2-(2-oxo-imidazolidin-1-yl)-ethyl]-amide}]
6 | 0.017 | COC(=O)c1cccc2c(C(=O)NC3CCN(C(C)C)CC3)nn(Cc3cc(-c4ccc(Cl)s4)on3)c12 [Example 3, 1-[5-(5-Chloro-thiophen-2-yl)-isoxazol-3-ylmethyl]-3-(1-isopropyl-piperidin-4-ylcarbamoyl)-1H-indazole-7-carboxylic acid methyl ester]
7 | 0.033 | CC(C)N1CCC(NC(=O)c2nn(Cc3cc(-c4ccc(Cl)s4)on3)c3ccc(C(=O)NCC(N)=O)cc23)CC1 [Example 21, 1-[5-(5-Chloro-thiophen-2-yl)-isoxazol-3-ylmethyl]-1H-indazole-3,5-dicarboxylic acid 5-carbamoylmethyl-amide 3-[(1-isopropyl-piperidin-4-yl)-amide]]
8 | 0.007 | CS(=O)(=O)c1ccccc1-c1ccc(NC(=O)c2nn(Cc3cc(-c4ccc(Cl)s4)on3)c3ccccc23)cc1 [Example 41, 1-[5-(5-Chloro-thiophen-2-yl)-isoxazol-3-ylmethyl]-1H-indazole-3-carboxylic acid (2′-methanesulfonyl-biphenyl-4-yl)-amide]
9 | 0.086 | CC(C)N1CCC(NC(=O)c2nn(CC(=O)Nc3ccc(Cl)cn3)c3ccccc23)CC1 [Example 7]
10 | 0.035 | COC(=O)c1ccc2c(C(=O)NC3CCN(C(C)C)CC3)nn(Cc3cc(-c4ccc(Cl)s4)on3)c2c1 [Example 2, 1-[5-(5-Chloro-thiophen-2-yl)-isoxazol-3-ylmethyl]-3-(1-isopropyl-piperidin-4-ylcarbamoyl)-1H-indazole-6-carboxylic acid methyl ester]
11 | 0.022 | CONC(=O)c1ccc2c(c1)c(C(=O)NC1CCN(C(C)C)CC1)nn2Cc1cc(-c2ccc(Cl)s2)on1 [Example 32, 1-[5-(5-Chloro-thiophen-2-yl)-isoxazol-3-ylmethyl]-1H-indazole-3,5-dicarboxylic acid 3-[(1-isopropyl-piperidin-4-yl)-amide]5-(methoxy-amide)]
12 | 0.082 | CCOC(=O)OC(C)OC(=O)c1ccc2c(c1)c(C(=O)NC1CCN(C(C)C)CC1)nn2Cc1cc(-c2ccc(Cl)s2)on1 (centres unmarked) [Example 9, 1-[5-(5-Chloro-thiophen-2-yl)-isoxazol-3-ylmethyl]-3-(1-isopropyl-piperidin-4-ylcarbamoyl)-1H-indazole-5-carboxylic acid 1-ethoxycarbonyloxy-ethyl ester]
13 | 0.026 | CCOC(=O)CNC(=O)c1ccc2c(c1)c(C(=O)NC1CCN(C(C)C)CC1)nn2Cc1cc(-c2ccc(Cl)s2)on1 [Example 19, {[1-[5-(5-Chloro-thiophen-2-yl)-isoxazol-3-ylmethyl]-3-(1-isopropyl-piperidin-4-ylcarbamoyl)-1H-indazole-5-carbonyl]-amino}-acetic acid ethyl ester]
14 | 0.01 | CC(C)N1CCC(NC(=O)c2nn(Cc3cc(-c4ccc(Cl)s4)on3)c3ccc(C(=O)N4CC(C(=O)O)C4)cc23)CC1 [Example 52, 1-[1-[5-(5-Chloro-thiophen-2-yl)-isoxazol-3-ylmethyl]-3-(1-isopropyl-piperidin-4-ylcarbamoyl)-1H-indazole-5-carbonyl]-azetidine-3-carboxylic acid]
15 | 0.039 | CC(C)N1CCC(NC(=O)c2nn(Cc3cc(-c4ccc(Cl)s4)on3)c3ccc(C(=O)OCCO)cc23)CC1 [Example 29, 1-[5-(5-Chloro-thiophen-2-yl)-isoxazol-3-ylmethyl]-3-(1-isopropyl-piperidin-4-ylcarbamoyl)-1H-indazole-5-carboxylic acid 2-hydroxy-ethyl ester]
16 | 0.21 | O=C(c1nn(Cc2cc(-c3ccc(Cl)s3)on2)c2ccccc12)N1CCC(N2CCCC2=O)CC1 [Example 37, 1-(1-{1-[5-(5-Chloro-thiophen-2-yl)-isoxazol-3-ylmethyl]-1H-indazole-3-carbonyl}-piperidin-4-yl)-pyrrolidin-2-one]
17 | 0.014 | CC(C)N1CCC(NC(=O)c2nn(Cc3cc(-c4ccc(Cl)s4)on3)c3ccc(C(=O)NCC(=O)O)cc23)CC1 [Example 25, {[1-[5-(5-Chloro-thiophen-2-yl)-isoxazol-3-ylmethyl]-3-(1-isopropyl-piperidin-4-ylcarbamoyl)-1H-indazole-5-carbonyl]-amino}-acetic acid]
18 | 0.079 | COC(=O)c1ccc2c(c1)c(C(=O)NC1CCN(C(C)C)CC1)nn2Cc1cc(-c2ccc(Cl)s2)on1 [Example 1, 1-[5-(5-Chloro-thiophen-2-yl)-isoxazol-3-ylmethyl]-3-(1-isopropyl-piperidin-4-ylcarbamoyl)-1H-indazole-5-carboxylic acid methyl ester]
19 | 0.039 | CC(C)N1CCC(NC(=O)c2nn(Cc3cc(-c4ccc(Cl)s4)on3)c3ccc(C(=O)NCC(F)(F)F)cc23)CC1 [Example 27, 1-[5-(5-Chloro-thiophen-2-yl)-isoxazol-3-ylmethyl]-1H-indazole-3,5-dicarboxylic acid 3-[(1-isopropyl-piperidin-4-yl)-amide]5-[(2,2,2-trifluoro-ethyl)-amide]]
20 | 0.054 | CC(C)N1CCC(NC(=O)c2nn(Cc3cc(-c4ccc(Cl)s4)on3)c3ccc(C(=O)NC[Si](C)(C)C)cc23)CC1 [Example 16, 1-[5-(5-Chloro-thiophen-2-yl)-isoxazol-3-ylmethyl]-1H-indazole-3,5-dicarboxylic acid 3-[(1-isopropyl-piperidin-4-yl)-amide]5-trimethylsilanylmethyl-amide]
21 | 0.53 | O=C(Nc1ccc(C(=O)N2CCOCC2)cc1)c1nn(Cc2cc(-c3ccc(Cl)s3)on2)c2ccccc12 [Example 35, 1-[5-(5-Chloro-thiophen-2-yl)-isoxazol-3-ylmethyl]-1H-indazole-3-carboxylic acid [4-(morpholine-4-carbonyl)-phenyl]-amide]
22 | 0.04 | CC(C)N1CCC(NC(=O)c2nn(Cc3cc(-c4ccc(Cl)s4)on3)c3ccc(C(=O)NCCS(C)(=O)=O)cc23)CC1 [Example 13, 1-[5-(5-Chloro-thiophen-2-yl)-isoxazol-3-ylmethyl]-1H-indazole-3,5-dicarboxylic acid 3-[(1-isopropyl-piperidin-4-yl)-amide]5-[(2-methanesulfonyl-ethyl)-amide]]
23 | 0.028 | CC(C)N1CCC(NC(=O)c2nn(Cc3cc(-c4ccc(Cl)s4)on3)c3ccc(C(=O)NCCS(N)(=O)=O)cc23)CC1 [Example 14, 1-[5-(5-Chloro-thiophen-2-yl)-isoxazol-3-ylmethyl]-1H-indazole-3,5-dicarboxylic acid 3-[(1-isopropyl-piperidin-4-yl)-amide]5-[(2-sulfamoyl-ethyl)-amide]]
24 | 0.017 | CC(C)N1CCC(NC(=O)c2nn(Cc3cc(-c4ccc(Cl)s4)on3)c3ccc(C(=O)N4CC[C@H]4C(=O)O)cc23)CC1 [Example 26, 1-[1-[5-(5-Chloro-thiophen-2-yl)-isoxazol-3-ylmethyl]-3-(1-isopropyl-piperidin-4-ylcarbamoyl)-1H-indazole-5-carbonyl]-(2S)-azetidine-2-carboxylic acid]
25 | 0.12 | O=C(Nc1ccc(C(=O)N2CCCC2)cc1)c1nn(Cc2cc(-c3ccc(Cl)s3)on2)c2ccccc12 [Example 34, 1-[5-(5-Chloro-thiophen-2-yl)-isoxazol-3-ylmethyl]-1H-indazole-3-carboxylic acid [4-(pyrrolidine-1-carbonyl)-phenyl]-amide]

Row | Structure (SMILES) | Ki [µM]
26 | CC(C)N1CCC(NC(=O)c2nn(Cc3cc(-c4ccc(Cl)s4)on3)c3cccc(C#N)c23)CC1 [Example 10, 1-[5-(5-Chloro-thiophen-2-yl)-isoxazol-3-ylmethyl]-4-cyano-1H-indazole-3-carboxylic acid (1-isopropyl-piperidin-4-yl)-amide] | 0.009
27 | CC(C)N1CCC(NC(=O)c2nn(Cc3cc(-c4ccc(Cl)s4)on3)c3ccccc23)CC1 [Example 8, 1-[5-(5-Chloro-thiophen-2-yl)-isoxazol-3-ylmethyl]-1H-indazole-3-carboxylic acid (1-isopropyl-piperidin-4-yl)-amide] | 0.006
28 | CC(C)N1CCC(NC(=O)c2nn(Cc3cc(-c4ccc(Cl)s4)on3)c3cc(C(=O)O)ccc23)CC1 [Example 6, 1-[5-(5-Chloro-thiophen-2-yl)-isoxazol-3-ylmethyl]-3-(1-isopropyl-piperidin-4-ylcarbamoyl)-1H-indazole-6-carboxylic acid] | 0.212
29 | CC(C)N1CCC(NC(=O)c2nn(Cc3cc(-c4ccc(Cl)s4)on3)c3ccc(C(=O)O)cc23)CC1 [Example 4, 1-[5-(5-Chloro-thiophen-2-yl)-isoxazol-3-ylmethyl]-3-(1-isopropyl-piperidin-4-ylcarbamoyl)-1H-indazole-5-carboxylic acid] | 0.018
